According to PubChem BioAssay AID634 (Vanderbilt High Throughput Screening Facility, 2007):
Activity calls are given as the source filed them. No rule for the calls is given here.

Target: Voltage-gated potassium channel subunit beta-2 (Rattus norvegicus) (UniProt P62483)
Assay: retested enhancers of rat Kvbeta2 activity – biochemical, confirmation (AID 634)
Conditions: Rat Kvbeta2 enzymatic assay, slope read-out; hits give low values

Chain of Voltage-gated potassium channel subunit beta-2 (Rattus norvegicus) (P62483 whole entry, looked up): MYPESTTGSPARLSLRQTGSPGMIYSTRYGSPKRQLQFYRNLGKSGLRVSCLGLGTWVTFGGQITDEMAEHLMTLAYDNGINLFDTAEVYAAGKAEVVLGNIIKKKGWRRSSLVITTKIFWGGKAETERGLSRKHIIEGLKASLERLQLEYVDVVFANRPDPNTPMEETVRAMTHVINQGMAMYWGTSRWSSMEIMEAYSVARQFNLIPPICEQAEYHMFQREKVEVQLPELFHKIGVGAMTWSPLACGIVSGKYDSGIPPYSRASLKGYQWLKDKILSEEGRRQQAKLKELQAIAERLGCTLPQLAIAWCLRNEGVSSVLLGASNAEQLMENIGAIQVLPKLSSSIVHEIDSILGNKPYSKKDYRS

| Compound | slope |
| --- | --- |
| CCn1cc(C(=O)Nc2cc3c(cc2NC(C)=O)OCCO3)c(=O)c2ccc(C)nc21 | 0.112 (inactive) |
| O=c1c2ccccc2[se]n1-c1ccccc1 | -0.798 |
| CC(=O)Oc1ccc2c(C)cc(=O)[nH]c2c1 | 0.0957 (inactive) |
| CCN(CC)CCCn1c(=S)[nH]c2cc(Cl)ccc2c1=O | 0.133 (inactive) |
| CCOc1ccccc1Nc1nc2ccccc2[nH]1 | 0.0352 (inactive) |
| CN1C(=S)SC(C)(NO)C1(C)C (configuration not stated) | -0.536 |
| CCOC(=O)CNC(=O)Nc1ccccc1C(=O)OC | 0.092 (inactive) |
| COc1ccccc1C1/C(=C(/O)c2ccc(OC(C)C)cc2)C(=O)C(=O)N1c1cc(C)on1 (configuration not stated) | 0.0306 (inactive) |
| CCOC(=O)C1=C(N)OC(C)=C(C(=O)OCCOC)C12C(=O)Nc1ccccc12 (configuration not stated) | 0.0877 (inactive) |
| NS(=O)(=O)c1cc2c(cc1Cl)NC=NS2(=O)=O | 0.0676 (inactive) |
| O=C(C1=C(O)C(=O)N(CCCN2CCOCC2)C1c1ccccn1)c1cc2ccccc2o1 (configuration not stated) | 0.134 (inactive) |
| C=CCn1c(SCC(=O)NCC2CCCO2)nc2scc(-c3ccco3)c2c1=O (configuration not stated) | 0.0642 (inactive) |
| CC(O)CNc1nc2c(c(=O)n(C)c(=O)n2C)n1CCc1ccccc1 (configuration not stated) | 0.0661 (inactive) |
| CCCCOc1ccc(-c2nnn(C(C)(C)C(=O)OC)n2)cc1 | 0.0535 (inactive) |
| O=C(NCc1cccs1)C(Cc1ccccc1)NS(=O)(=O)c1cccs1 (configuration not stated) | 0.0568 (inactive) |
| O=C(NCCC1=CCCCC1)N[C@@H](Cc1ccccc1)C(=O)O | 0.0842 (inactive) |
| Cn1c(SCC(=O)Nc2ccc3c(c2)oc2ccccc23)nnc1-c1ccccc1 | 0.119 (inactive) |
| COc1cccc(Oc2ccc(N)cc2)c1 | 0.062 (inactive) |
| CCCCCC#CCC#CCC#CCC#CCCCC(=O)O | -0.0283 (inactive) |
| Cc1ccc(N2C(=O)C3ON(c4ccccc4)C(c4ccncc4)C3C2=O)cc1 (configuration not stated) | 0.0514 (inactive) |
| Cc1ccc2c(c1)[C@@H]1CN(C)CC[C@@H]1N2C(=O)Nc1cccc(C(F)(F)F)c1 | -0.0275 (inactive) |
| CC(c1ccco1)N(C(=O)c1ccc(S(=O)(=O)N2CCCCC2)cc1)c1ccccn1 (configuration not stated) | 0.0766 (inactive) |
